According to ChEMBL document CHEMBL3243940, “Primaquine analogues: derivatives of 4-amino-2-methoxyacridine” (J Med Chem, 1979):

Assays:
[1] = test system: Leishmania donovani; assay: Antileishmanial activity against amastigotes of Leishmania donovani Khartoum infected in golden hamster assessed as reduction of parasite level in liver at 13 mg/kg bid for 4 days; type: functional; parameters: scale not given: the % may be the effect or the level left
[2] = test system: Leishmania donovani; assay: Antileishmanial activity against amastigotes of Leishmania donovani Khartoum infected in golden hamster assessed as reduction of parasite level in liver at 52 mg/kg bid for 4 days; type: functional; parameters: scale not given: the % may be the effect or the level left
[3] = test system: Syrian golden hamster; assay: Toxicity in amastigotes of Leishmania donovani Khartoum infected golden hamster at 208 mg/kg bid for 4 days; type: organism-based, Mesocricetus auratus; parameters: dose 208 mg/kg; conditions: in vivo, 96 h
[4] = test system: Leishmania donovani; assay: Ratio of glucantime SD50 to compound SD50 for amastigotes of Leishmania donovani Khartoum infected in golden hamster; type: functional

CCN(CC)CCCCCCNc1cc(OC)cc2c(C)c3ccccc3nc12
Activity [1]: 36% | Activity [2]: 53% | Activity [3]: Toxic | Ratio [4]: 0.2
